Assay results reported in patent publication US10844023B2 (Washington University, priority 2017, dated 2020).

System: Mfn2 null MEFs
Experiment: Mitochondrial elongation (aspect ratio) fusogenicity assay
Type: cell-based, mouse
Conditions: for Aspect ratio (MEAN ± SEM): Mfn2 null MEFs, overnight, treatment with 1 μM compound (footnote); for Fusogenicity Rank: rank order of aspect ratio among 44 soluble library compounds

SMILES | Aspect ratio (MEAN ± SEM) | Fusogenicity Rank
CCOC(=O)c1sc(NC(=O)C(CC)Sc2nnc3c(n2)[nH]c2ccccc23)nc1C (stereo not drawn) [drawing 203, ethyl 4-methyl-2-(2-{5H-[1,2,4]triazino[5,6-b]indol-3-ylsulfanyl}butanamido)-1,3-thiazole-5-carboxylate] | 4.5 ± 0.5 | 13
CC(C)C1=CC2C(=O)NC(CSCC(=O)NCc3ccccn3)=NC2S1 (stereo not drawn) [drawing 204, 2-({[4-oxo-6-(propan-2-yl)-3H,4H,4aH,7aH-thieno[2,3-d]pyrimidin-2-yl]methyl}sulfanyl)-N-[(pyridin-2-yl)methyl]acetamide] | 3.8 ± 0.6 | 21
O=C(CSCCc1ccccn1)Nc1ccc(Cl)c(Cl)c1 [drawing 205, N-(3,4-dichlorophenyl)-2-{[2-(pyridin-2-yl)ethyl]sulfanyl}acetamide] | 2.8 ± 0.1 | 41
Cc1nc[nH]c1CSCCn1cnc2cn(C)nc2c1=O [drawing 206, 2-methyl-6-(2-{[(4-methyl-1H-imidazol-5-yl)methyl]sulfanyl}ethyl)-2H,6H,7H-pyrazolo[4,3-d]pyrimidin-7-one] | 2.8 ± 0.2 | 42
Cc1ccc(-c2noc(CSCCCC(=O)Nc3c(C)cccc3C)n2)cc1F [drawing 209, N-(2,6-dimethylphenyl)-4-({[3-(3-fluoro-4-methylphenyl)-1,2,4-oxadiazol-5-yl]methyl}sulfanyl)butanamide] | 3.9 ± 0.5 | 20
COc1ccc2c(c1)C1(SCCN1C(=O)c1ccccc1C)C(=O)N2Cc1cccc(C(F)(F)F)c1 (stereo not drawn) [drawing 210, 5-methoxy-3′-(2-methylbenzoyl)-1-{[3-(trifluoromethyl)phenyl]methyl}-1,2-dihydrospiro[indole-3,2′-[1,3]thiazolidine]-2-one] | 3.5 ± 0.6 | 26
Cc1cccc(C)c1NC(=O)CCCSCc1ncc(C(C)C)o1 [drawing 211, N-(2,6-dimethylphenyl)-4-({[5-(propan-2-yl)-1,3-oxazol-2-yl]methyl}sulfanyl)butanamide] | 3.5 ± 0.1 | 25
Cc1ccc2c(c1)SC(C(=O)NCc1ccc(N3CCCN(C)CC3)nc1)C2 (stereo not drawn) [drawing 212, 6-methyl-N-{[6-(4-methyl-1,4-diazepan-1-yl)pyridin-3-yl]methyl}-2,3-dihydro-1-benzothiophene-2-carboxamide] | 4.0 ± 0.3 | 18
O=C(NCCSCc1ccc(Br)s1)C1CCCN(C(=O)c2cccs2)C1 (stereo not drawn) [drawing 213, N-(2-{[(5-bromothiophen-2-yl)methyl]sulfanyl}ethyl)-1-(thiophene-2-carbonyl)piperidine-3-carboxamide] | 5.1 ± 0.2 | 9
Cc1ccc(-n2nnnc2SC(C)c2nc(-c3nnc[nH]3)no2)cc1 (stereo not drawn) [drawing 215, 1-(4-methylphenyl)-5-({1-[3-(4H-1,2,4-triazol-3-yl)-1,2,4-oxadiazol-5-yl]ethyl}sulfanyl)-1H-1,2,3,4-tetrazole] | 3.4 ± 0.3 | 27
Cc1nnc(SCCCNC(=O)c2n[nH]c3c2CN(C)CC3)s1 [drawing 216, 5-methyl-N-{3-[(5-methyl-1,3,4-thiadiazol-2-yl)sulfanyl]propyl}-1H,4H,5H,6H,7H-pyrazolo[4,3-c]pyridine-3-carboxamide] | 3.1 ± 0.3 | 34
O=C(NCCSCc1ccccc1)C1CCCCO1 (stereo not drawn) [drawing 218, N-[2-(benzylsulfanyl)ethyl]oxane-2-carboxamide] | 3.3 ± 0.4 | 30
Cc1nc[nH]c1CSCCNC(=O)C1CCN(C(=O)C2CCC2)CC1 [drawing 220, 1-cyclobutanecarbonyl-N-(2-{[(4-methyl-1H-imidazol-5-yl)methyl]sulfanyl}ethyl)piperidine-4-carboxamide] | 2.9 ± 0.5 | 40
O=C(NCCSCc1cccc(Cl)c1)C1CCCCn2nnnc21 (stereo not drawn) [drawing 222, N-(2-{[(3-chlorophenyl)methyl]sulfanyl}ethyl)-5H,6H,7H,8H,9H-[1,2,3,4]tetrazolo[1,5-a]azepine-9-carboxamide] | 2.9 ± 0.2 | 38
CC(Sc1nnc(N2CCOCC2)n1Cc1ccccc1)C(=O)Nc1ccc2[nH]c(=O)[nH]c2c1 (stereo not drawn) [drawing 223, 2-{[4-benzyl-5-(morpholin-4-yl)-4H-1,2,4-triazol-3-yl]sulfanyl}-N-(2-oxo-2,3-dihydro-1H-1,3-benzodiazol-5-yl)propanamide] | 5.2 ± 0.2 | 8
CC1CCCCC1NC(=O)NCCSCc1ccccc1 (stereo not drawn) [drawing 224, 1-[2-(benzylsulfanyl)ethyl]-3-(2-methylcyclohexyl)urea] | 6.8 ± 0.6 | 4
S=C(NCCSCc1ccco1)NC1CC2CCC1C2 (stereo not drawn) [drawing 225, 1-{bicyclo[2.2.1]heptan-2-yl}-3-(2-{[(furan-2-yl)methyl]sulfanyl}ethyl)thiourea] | 3.7 ± 0.9 | 23

SMILES | Aspect ratio (MEAN ± SEM) | Fusogenicity Rank
CC(Sc1nnc(N2CCOCC2)n1Cc1ccccc1)C(=O)Nc1ccc2c(c1)OCCO2 (stereo not drawn) [drawing 226, 2-{[4-benzyl-5-(morpholin-4-yl)-4H-1,2,4-triazol-3-yl]sulfanyl}-N-(2,3-dihydro-1,4-benzodioxin-6-yl)propanamide] | 6.0 ± 0.1 | 6
CC(Sc1nc(CN2CCOCC2)nc2ccccc12)C(=O)Nc1cccc(C(F)(F)F)c1 (stereo not drawn) [drawing 227, 2-({2-[(morpholin-4-yl)methyl]quinazolin-4-yl}sulfanyl)-N-[3-(trifluoromethyl)phenyl]propanamide] | 5.6 ± 0.6 | 7
Cc1ccc(-n2c(SC(C)C(=O)Nc3ccnn3C(C)C)nnc2N2CCOCC2)cc1 (stereo not drawn) [drawing 229, 2-{[4-(4-methylphenyl)-5-(morpholin-4-yl)-4H-1,2,4-triazol-3-yl]sulfanyl}-N-[1-(propan-2-yl)-1H-pyrazol-5-yl]propanamide] | 4.1 ± 0.9 | 15
CCCc1noc(C(C)Sc2nc3cc(C)ccc3[nH]2)n1 (stereo not drawn) [drawing 231, 5-methyl-2-{[1-(3-propyl-1,2,4-oxadiazol-5-yl)ethyl]sulfanyl}-1H-1,3-benzodiazole] | 4.0 ± 1.0 | 17
CCC(C)C1N=C2c3ccccc3N=C(SC(C)C(=O)Nc3cc(OC)cc(OC)c3)N2C1=O (stereo not drawn) [drawing 234, 2-{[2-(butan-2-yl)-3-oxo-2H,3H-imidazo[1,2-c]quinazolin-5-yl]sulfanyl}-N-(3,5-dimethoxyphenyl)propanamide] | 3.2 ± 0.3 | 32
CCC(C)NC(=O)c1ccccc1NC(=O)C(C)Sc1ccc(C)cc1 (stereo not drawn) [drawing 236, N-(butan-2-yl)-2-{2-[(4-methylphenyl)sulfanyl]propanamido}benzamide] | 3.3 ± 0.4 | 29
c1ccc(CSCCc2nc(C3CCOC3)no2)cc1 (stereo not drawn) [drawing 238, 5-[2-(benzylsulfanyl)ethyl]-3-(oxolan-3-yl)-1,2,4-oxadiazole] | 3.4 ± 0.6 | 28
CC(Sc1ccc(Br)cc1)C(=O)Nc1ccc2c(c1)OCCO2 (stereo not drawn) [drawing 239, 2-[(4-bromophenyl)sulfanyl]-N-(2,3-dihydro-1,4-benzodioxin-6-yl)propanamide] | 3.2 ± 0.5 | 33
Cc1ccc(C(=O)C(C)Sc2nnc3c(=O)n(-c4ccc(C)c(C)c4)ccn23)cc1C (stereo not drawn) [drawing 240, 7-(3,4-dimethylphenyl)-3-{[1-(3,4-dimethylphenyl)-1-oxopropan-2-yl]sulfanyl}-7H,8H-[1,2,4]triazolo[4,3-a]pyrazin-8-one] | 3.9 ± 0.8 | 19
O=C(NCCSCc1ccsc1)C1CC2CCCC(C1)C2=O (stereo not drawn) [drawing 241, 9-oxo-N-(2-{[(thiophen-3-yl)methyl]sulfanyl}ethyl)bicyclo[3.3.1]nonane-3-carboxamide] | 4.4 ± 0.6 | 14
CC(Sc1nnc(N2CCOCC2)n1Cc1ccccc1)C(=O)Nc1ccc2c(c1)OCO2 (stereo not drawn) [drawing 242, N-(2H-1,3-benzodioxol-5-yl)-2-{[4-benzyl-5-(morpholin-4-yl)-4H-1,2,4-triazol-3-yl]sulfanyl}propanamide] | 2.5 ± 0.6 | 43
Cc1ccc(N2C[C@@H]3CC[C@H](C2)N(Cc2ccccn2)C3=O)nn1 [drawing 245, (1S,5R)-3-(6-methylpyridazin-3-yl)-6-[(pyridin-2-yl)methyl]-3,6-diazabicyclo[3.2.2]nonan-7-one] | 3.0 ± 0.4 | 36
Cc1ccc(SC2CCN(Cc3cc4n(n3)CCNC4)CC2)cc1 [drawing 246, 4-[(4-methylphenyl)sulfanyl]-1-({4H,5H,6H,7H-pyrazolo[1,5-a]pyrazin-2-yl}methyl)piperidine] | 2.9 ± 0.2 | 39
CC(/N=N/C(=N)SC1CC(=O)N(c2cccc(C(=O)O)c2)C1=O)c1ccccc1 (stereo not drawn) [drawing 247, 3-(2,5-dioxo-3-{[(E)-N-[(1-phenylethyl)imino]carbamimidoyl]sulfanyl}pyrrolidin-1-yl)benzoic acid] | 3.3 ± 0.0 | 31
CCOc1ccccc1NC(=O)CSCc1cc(=O)c2ccc(C)c(C)c2[nH]1 [drawing 248, 2-{[(7,8-dimethyl-4-oxo-1,4-dihydroquinolin-2-yl)methyl]sulfanyl}-N-(2-ethoxyphenyl)acetamide] | 3.7 ± 0.6 | 24
O=C(CSCC(=O)N1CCCc2ccccc21)Nc1ccccc1 [drawing 249, 2-{[2-oxo-2-(1,2,3,4-tetrahydroquinolin-1-yl)ethyl]sulfanyl}-N-phenylacetamide] | 2.4 ± 0.4 | 44
